Converted amounts (≈) assume the structure as drawn.
Tests used:
Assay in all cases: Antibacterial activity in vitro, MIC by broth microdilution
H. influenzae Hain_49247 = type: cell-based, Haemophilus influenzae; conditions: Table 3, Strain ID L: H. influenzae Hain_49247; unit assumed
Procedure, shortened: (§1)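 Visible-growth inhibition defined the MIC, obtained by NCCLS broth microdilution at 35° C. over 18-24 hours with a final inoculum of 3×10^5–7×10^5 CFU/mL.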

[1] = tested on: S. pneumoniae Stpn_297-749 Pen R; type: cell-based, Streptococcus pneumoniae; conditions: Table 3, Strain ID F: S. pneumoniae Stpn_297-749 Pen R
Procedure, shortened: as §1

[2] = tested on: S. pneumoniae Stpn_280-962 Pen S; type: cell-based, Streptococcus pneumoniae; conditions: Table 3, Strain ID G: S. pneumoniae Stpn_280-962 Pen S
Procedure, shortened: as §1

[3] = tested on: S. pneumoniae Stpn_Mef S 3427; type: cell-based, Streptococcus pneumoniae; conditions: Table 3, Strain ID K: S. pneumoniae Stpn_Mef S 3427
Procedure, shortened: as §1

S. pneumoniae Stpn_49619 = type: cell-based, Streptococcus pneumoniae; conditions: Table 3, Strain ID E: S. pneumoniae Stpn_49619
Procedure, shortened: as §1

[4] = tested on: S. pneumoniae Stpn_Erm 6849; type: cell-based, Streptococcus pneumoniae; conditions: Table 3, Strain ID H: S. pneumoniae Stpn_Erm 6849; unit assumed
Procedure, shortened: as §1

[5] = tested on: S. pneumoniae Stpn_Mef 5654; type: cell-based, Streptococcus pneumoniae; conditions: Table 3, Strain ID J: S. pneumoniae Stpn_Mef 5654; unit assumed
Procedure, shortened: as §1

[6] = tested on: S. pneumoniae Stpn_Erm S 4297; type: cell-based, Streptococcus pneumoniae; conditions: Table 3, Strain ID I: S. pneumoniae Stpn_Erm S 4297
Procedure, shortened: as §1

[7] = tested on: S. epidermidis Step_14990; type: cell-based; conditions: Table 3, Strain ID A: S. epidermidis Step_14990; unit assumed
Procedure, shortened: as §1

[8] = tested on: S. epidermidis Step_f50654 Pen S; type: cell-based; conditions: Table 3, Strain ID B: S. epidermidis Step_f50654 Pen S; unit assumed
Procedure, shortened: as §1

E. faecalis Enfa_29212 = type: cell-based; conditions: Table 3, Strain ID C: E. faecalis Enfa_29212
Procedure, shortened: as §1

S. pyogenes Stpy_8668 = type: cell-based; conditions: Table 3, Strain ID D: S. pyogenes Stpy_8668
Procedure, shortened: as §1

E. coli Esco_25922 = type: cell-based; conditions: Table 3, Strain ID M: E. coli Esco_25922; unit assumed
Procedure, shortened: as §1

Row | Compound | MIC (H. influenzae Hain_49247) [µg/mL] | MIC [1] | MIC [2] | MIC ([3]; unit assumed) [µg/mL] | MIC (S. pneumoniae Stpn_49619) | MIC [4] [µg/mL] | MIC [5] [µg/mL] | MIC ([6]; unit assumed) [µg/mL] | MIC [7] [µg/mL] | MIC [8] [µg/mL] | MIC (E. faecalis Enfa_29212; unit assumed) [µg/mL] | MIC (S. pyogenes Stpy_8668) | MIC (E. coli Esco_25922) [µg/mL] | MIC (S. pneumoniae Stpn_49619; unit assumed) [µg/mL] | MIC (S. pyogenes Stpy_8668; unit assumed) [µg/mL] | MIC [3] | MIC [6] | MIC (E. faecalis Enfa_29212)
1 | CC[C@H]1OC(=O)[C@H](C)C(=O)[C@H](C)[C@@H](O[C@@H]2O[C@H](C)C[C@H](N(C)C)[C@H]2O)[C@@](C)(OC)C[C@@H](C)C(=O)[C@H](C)[C@@H]2[C@@H]1OC(=O)N2CCCCn1cnc(-c2ccccc2)c1 [Compound 4710] | 3.13 (≈ 3.93 µM) | ≦0.5 | ≦0.5 |  | ≦0.5 | 0.2 (≈ 0.251 µM) | 0.2 (≈ 0.251 µM) |  | 0.1 (≈ 0.125 µM) | 0.2 (≈ 0.251 µM) |  | ≦0.5 | 50 (≈ 62.7 µM) |  |  | ≦0.5 | ≦0.05 | ≦0.05
2 | CC[C@H]1OC(=O)[C@H](C)C(=O)[C@H](C)[C@@H](O[C@@H]2O[C@H](C)C[C@H](N(C)C)[C@H]2O)[C@@](C)(OC)C[C@@H](C)C(=O)[C@H](C)[C@@H]2[C@@H]1OC(=O)N2CCCCc1ccnc2ccccc12 [Compound 4711] | 1.56 (≈ 1.99 µM) | ≦0.5 | ≦0.5 |  | ≦0.5 | 6.25 (≈ 7.99 µM) | 0.1 (≈ 0.128 µM) | 0.2 (≈ 0.256 µM) | 0.1 (≈ 0.128 µM) | 0.1 (≈ 0.128 µM) |  | ≦0.5 | 50 (≈ 63.9 µM) |  |  | ≦0.5 |  | ≦0.05
3 | CC[C@H]1OC(=O)[C@H](C)C(=O)[C@H](C)[C@@H](O[C@@H]2O[C@H](C)C[C@H](N(C)C)[C@H]2O)[C@@](C)(OC)C[C@@H](C)C(=O)[C@H](C)[C@@H]2[C@@H]1OC(=O)N2CCCCn1cnc2ncccc21 [Compound 4713] | 3.13 (≈ 4.05 µM) | ≦0.5 | ≦0.5 | 0.4 (≈ 0.518 µM) | ≦0.5 | 0.78 (≈ 1.01 µM) | 3.13 (≈ 4.05 µM) | 0.1 (≈ 0.13 µM) | 0.4 (≈ 0.518 µM) | 0.4 (≈ 0.518 µM) | 0.1 (≈ 0.13 µM) | ≦0.5 | 50 (≈ 64.8 µM) |  |  |  |  | 

Next, values leading:

Row | MIC (H. influenzae Hain_49247) [µg/mL] | MIC [1] | MIC [2] | MIC ([3]; unit assumed) [µg/mL] | MIC (S. pneumoniae Stpn_49619) | MIC [4] [µg/mL] | MIC [5] [µg/mL] | MIC ([6]; unit assumed) [µg/mL] | MIC [7] [µg/mL] | MIC [8] [µg/mL] | MIC (E. faecalis Enfa_29212; unit assumed) [µg/mL] | MIC (S. pyogenes Stpy_8668) | MIC (E. coli Esco_25922) [µg/mL] | MIC (S. pneumoniae Stpn_49619; unit assumed) [µg/mL] | MIC (S. pyogenes Stpy_8668; unit assumed) [µg/mL] | MIC [3] | MIC [6] | MIC (E. faecalis Enfa_29212) | Compound
4 | 12.5 (≈ 16.7 µM) | ≦0.05 | ≦0.05 | 1.56 (≈ 2.09 µM) | ≦0.05 | > 50 | 6.25 (≈ 8.36 µM) | > 50 | 0.2 (≈ 0.267 µM) | 0.2 (≈ 0.267 µM) | 0.78 (≈ 1.04 µM) | ≦0.05 | 50 (≈ 66.8 µM) |  |  |  |  |  | CC[C@H]1OC(=O)[C@H](C)[C@@H](O[C@H]2C[C@@](C)(OC)[C@@H](O)[C@H](C)O2)[C@H](C)[C@@H](O[C@@H]2O[C@H](C)C[C@H](N(C)C)[C@H]2O)[C@](C)(OC)C[C@@H](C)C(=O)[C@H](C)[C@@H](O)[C@]1(C)O [Clar., clarithromycin, reference compound]
5 | 25 (≈ 41.8 µM) | ≦0.05 | ≦0.05 | 0.1 (≈ 0.167 µM) |  | > 50 | 0.2 (≈ 0.334 µM) | > 50 | 3.13 (≈ 5.23 µM) | 3.13 (≈ 5.23 µM) | 1.56 (≈ 2.61 µM) |  | > 50 | 0.2 (≈ 0.334 µM) | 0.1 (≈ 0.167 µM) |  |  |  | CC[C@H]1OC(=O)[C@H](C)C(=O)[C@H](C)[C@@H](O[C@@H]2O[C@H](C)C[C@H](N(C)C)[C@H]2O)[C@@](C)(OC)C[C@@H](C)C(=O)[C@H](C)[C@H]2NC(=O)O[C@@H]21 [Compound 4266]
